Data from patent US20260184710A1, “CASITAS B-LINEAGE LYMPHOMA PROTOONCOGENE B (CBL-B) DEGRADING COMPOUNDS AND ASSOCIATED METHODS OF USE” (Arvinas Operations, Inc., priority 2022, published 2026).

Target: T1, Cbl-b (Homo sapiens, UniProt Q13191)
T1 construct: Cbl-b-HiBit KI Jurkat Cells were purchased from Promega; host or cells: Cbl-b-HiBiT knock-in Jurkat cells
Assay: Cbl-b Degradation Method B (Nano-Glo HiBiT lytic detection)
Format: cell-based
Conditions: Cbl-b-HiBit KI Jurkat Cells, incubated at least 6-24 hours; for DC50: half maximal degradation, read-out: Cbl-b Degredation Method B IC50; for Dmax: maximum degradation observed, read-out: Cbl-b Degredation Method B Dmax (%)
Summary of the method: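 An 11-point, 3-fold compound dilution was applied for 6-24 hours to Jurkat cells carrying HiBiT-tagged endogenous Cbl-b. Lytic HiBiT luminescence quantified residual protein. Outputs are DC50 and Dmax relative to DMSO control.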

T1 sequence (Q13191 whole entry): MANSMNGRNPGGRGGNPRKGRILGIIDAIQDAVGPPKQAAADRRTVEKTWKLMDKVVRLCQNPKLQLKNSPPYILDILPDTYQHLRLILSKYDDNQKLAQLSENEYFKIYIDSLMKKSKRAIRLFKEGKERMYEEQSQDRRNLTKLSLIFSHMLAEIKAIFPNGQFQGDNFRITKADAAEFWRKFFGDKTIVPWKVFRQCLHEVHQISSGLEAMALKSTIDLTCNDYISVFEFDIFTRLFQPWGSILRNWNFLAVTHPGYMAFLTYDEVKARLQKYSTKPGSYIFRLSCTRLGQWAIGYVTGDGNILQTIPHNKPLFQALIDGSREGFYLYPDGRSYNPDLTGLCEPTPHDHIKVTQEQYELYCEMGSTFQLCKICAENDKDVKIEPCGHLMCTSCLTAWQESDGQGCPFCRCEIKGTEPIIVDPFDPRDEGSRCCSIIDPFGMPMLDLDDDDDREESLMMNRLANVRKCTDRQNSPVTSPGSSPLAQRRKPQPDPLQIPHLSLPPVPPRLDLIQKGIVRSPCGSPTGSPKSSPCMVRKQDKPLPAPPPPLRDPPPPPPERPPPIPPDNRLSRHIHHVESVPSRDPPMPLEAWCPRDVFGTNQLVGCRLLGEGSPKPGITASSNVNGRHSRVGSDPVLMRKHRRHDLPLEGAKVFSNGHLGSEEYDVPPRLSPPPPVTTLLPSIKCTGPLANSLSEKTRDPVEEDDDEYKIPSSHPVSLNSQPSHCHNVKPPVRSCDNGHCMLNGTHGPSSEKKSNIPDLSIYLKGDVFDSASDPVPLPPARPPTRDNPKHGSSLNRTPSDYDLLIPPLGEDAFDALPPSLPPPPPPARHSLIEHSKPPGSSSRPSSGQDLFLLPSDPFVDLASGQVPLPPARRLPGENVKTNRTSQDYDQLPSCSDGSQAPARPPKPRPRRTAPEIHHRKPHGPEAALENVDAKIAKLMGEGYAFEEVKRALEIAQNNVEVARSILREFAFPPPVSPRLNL

DC50	Dmax	Structure (SMILES)
> 500 nM	–	Cn1cnnc1CC1(c2cccc(N3Cc4c(cc(CN5CCC(CN6CC7(CCN(c8ccc9c(c8)CN(C8CCC(=O)NC8=O)C9=O)CC7)C6)CC5)cc4C(F)(F)F)C3=O)c2)COC1 (centres unmarked) [Example 66, 3-(5-{2-[(1-{[2-(3-{3-[(4-methyl-4H-1,2,4-triazol-3-yl)methyl]oxetan-3-yl}phenyl)-3-oxo-7-(trifluoromethyl)-2,3-dihydro-1H-isoindol-5-yl]methyl}piperidin-4-yl)methyl]-2,7-diazaspiro[3.5]nonan-7-yl}-1-oxo-2,3-dihydro-1H-isoindol-2-yl)piperidine-2,6-dione]
> 500 nM	–	Cn1cnnc1CC1(c2cccc(N3Cc4c(cc(CN5CC(CN6CCN(C7CCN(c8ccc9c(c8)C(=O)N(C8CCC(=O)NC8=O)C9=O)CC7)CC6)C5)cc4C(F)(F)F)C3=O)c2)COC1 (centres unmarked) [Example 67, 2-(2,6-dioxopiperidin-3-yl)-5-(4-{4-[(1-{[2-(3-{3-[(4-methyl-4H-1,2,4-triazol-3-yl)methyl]oxetan-3-yl}phenyl)-3-oxo-7-(trifluoromethyl)-2,3-dihydro-1H-isoindol-5-yl]methyl}azetidin-3-yl)methyl]piperazin-1-yl}piperidin-1-yl)-2,3-dihydro-1H-isoindole-1,3-dione]
> 500 nM	–	Cn1cnnc1C[C@]1(c2cccc(N3Cc4c(cc(CN5CCN(C[C@H]6CC[C@H](OC7CCN(c8ccc(C9CCC(=O)NC9=O)cc8)CC7)CC6)CC5)cc4C(F)(F)F)C3=O)c2)C[C@H](C#N)C1 (some centres unmarked) [Example 206, (1r,3r)-3-[(4-methyl-4H-1,2,4-triazol-3-yl)methyl]-3-(3-{1-oxo-6-[(4-{[(1r,4r)-4-({1-[4-(2,6-dioxopiperidin-3-yl)phenyl]piperidin-4-yl}oxy)cyclohexyl]methyl}piperazin-1-yl)methyl]-4-(trifluoromethyl)-2,3-dihydro-1H-isoindol-2-yl}phenyl)cyclobutane-1-carbonitrile]
> 500 nM	–	Cn1cnnc1CC1(c2cccc(N3Cc4c(cc(CN5CCN(CC6CCN(c7ccc(N8CCC(=O)NC8=O)c(F)c7)CC6)CC5)cc4C(F)(F)F)C3=O)c2)COC1 [Example 57, 1-(2-fluoro-4-{4-[(4-{[2-(3-{3-[(4-methyl-4H-1,2,4-triazol-3-yl)methyl]oxetan-3-yl}phenyl)-3-oxo-7-(trifluoromethyl)-2,3-dihydro-1H-isoindol-5-yl]methyl}piperazin-1-yl)methyl]piperidin-1-yl}phenyl)-1,3-diazinane-2,4-dione]
5 to 50 nM	< 35%	CC1c2nc(N3CCC(O[C@H]4CC[C@H](CN5C[C@@H]6C[C@H]5CN6c5cc6c(c(C(F)(F)F)c5)CN(c5cccc([C@]7(Cc8nncn8C)C[C@H](C#N)C7)c5)C6=O)CC4)CC3)ccc2C(=O)N1C1CCC(=O)NC1=O (stereo partly drawn) [Example 182, (1r,3r)-3-[(4-methyl-4H-1,2,4-triazol-3-yl)methyl]-3-(3-{1-oxo-6-[(1S,4S)-5-{[(1r,4r)-4-({1-[6-(2,6-dioxopiperidin-3-yl)-7-methyl-5-oxo-5H,6H,7H-pyrrolo[3,4-b]pyridin-2-yl]piperidin-4-yl}oxy)cyclohexyl]methyl}-2,5-diazabicyclo[2.2.1]heptan-2-yl]-4-(trifluoromethyl)-2,3-dihydro-1H-isoindol-2-yl}phenyl)cyclobutane-1-carbonitrile]
< 5 nM	35 to 70%	CC(C)n1c(=O)n(C2CCC(=O)NC2=O)c2ccc(N3CCC(CN4CCC5(CC4)CN(c4cc6c(c(C(F)(F)F)c4)CN(c4cccc([C@]7(Cc8nncn8C)C[C@@H](C#N)C7)c4)C6=O)C5)CC3)cc21 (some centres unmarked) [Example 192, (1r,3r)-3-(3-{6-[7-({1-[1-(2,6-dioxopiperidin-3-yl)-2-oxo-3-(propan-2-yl)-2,3-dihydro-1H-1,3-benzodiazol-5-yl]piperidin-4-yl}methyl)-2,7-diazaspiro[3.5]nonan-2-yl]-1-oxo-4-(trifluoromethyl)-2,3-dihydro-1H-isoindol-2-yl}phenyl)-3-[(4-methyl-4H-1,2,4-triazol-3-yl)methyl]cyclobutane-1-carbonitrile]
